Legend:
Assay in all cases: Example B2 herbicidal action, post-emergence, pots in glasshouse, evaluated after 13 days (10=total damage to plant; 0=no damage to plant)
Type in all cases: in vivo
Conditions in all cases: rate 1000 g/ha
Setaria faberi = test system: Setaria faberi
Protocol: (§1) Seeds of a variety of test species were sown in standard soil in pots. After 8 days cultivation (post-emergence) under controlled conditions in a glasshouse (at 24/16° C., day/night; 14 hours light; 65% humidity), the plants were sprayed with an aqueous spray solution derived from the formulation of the technical active ingredient in acetone/water (50:50) solution containing 0.5% Tween 20 (polyoxyethelyene sorbitan monolaurate, CAS RN 9005-64-5). The test plants were then grown in a glasshouse under controlled conditions in a glasshouse (at 24/16° C., day/night; 14 hours light; 65% humidity) and watered twice daily. After 13 days, the test was evaluated (10=total damage to plant; 0=no damage to plant).

Solanum nigrum = test system: Solanum nigrum
Protocol: as §1

Echinochloa crus-galli = test system: Echinochloa crus-galli
Protocol: as §1

Amaranthus retroflexus = test system: Amaranthus retroflexus
Protocol: as §1

Ipomea hederaceae = test system: Ipomea hederaceae
Protocol: as §1

Structure (SMILES) | SETFA damage score (10=total damage to plant; 0=no damage to plant) (Setaria faberi) | SOLNI damage score (10=total damage to plant; 0=no damage to plant) (Solanum nigrum) | ECHCG damage score (10=total damage to plant; 0=no damage to plant) (Echinochloa crus-galli) | AMARE damage score (10=total damage to plant; 0=no damage to plant) (Amaranthus retroflexus) | IPOHE damage score (10=total damage to plant; 0=no damage to plant) (Ipomea hederaceae)
O=C1c2nccnc2N(CC=C(Cl)Cl)C(=O)C1c1c(F)ccc(F)c1Cl (stereo not drawn) [D3] | 3 | 7 | 0 | 9 | 7
CC(C)(C)C(=O)Oc1c(-c2c(F)ccc(Br)c2Cl)c(=O)n(CC(F)F)c2nccnc12 [A19] | 8 | 10 | 7 | 10 | 9
CC(C)(C)C(=O)Oc1c(-c2c(F)ccc(F)c2Cl)c(=O)n(CCC(F)=C(F)F)c2nccnc12 [C12] | 0 | 3 | 0 | 6 | 1
CC(C)(C)C(=O)Oc1c(-c2ccccc2OC(F)F)c(=O)n(CC(F)F)c2nccnc12 [A28] | 3 | 10 | 1 | 9 | 8
Cc1cc(C)c(-c2c(O)c3nccnc3n(CC(F)F)c2=O)c(C)c1 [B5] | 8 | 10 | 8 | 7 | 10
CC(C)(C)C(=O)Oc1c(-c2c(F)ccc(F)c2Cl)c(=O)n(CCC=C(F)F)c2nccnc12 [C11] | 0 | 2 | 0 | 5 | 0
COc1cc(F)c(F)cc1-c1c(OC(=O)C(C)(C)C)c2nccnc2n(CC(F)F)c1=O [A44] | 9 | 10 | 7 | 9 | 6
CC(C)(C)C(=O)Oc1c(-c2cc(Cl)ccc2Cl)c(=O)n(CC(F)F)c2nccnc12 [A42] | 7 | 10 | 6 | 10 | 9
CC(C)(C)C(=O)Oc1c(-c2c(F)ccc(F)c2Cl)c(=O)n(CC=C(Cl)Cl)c2nccnc12 [C13] | 0 | 3 | 0 | 0 | 1
O=c1c(-c2cc(F)ccc2Cl)c(O)c2nccnc2n1CC(F)F [B7] | 7 | 9 | 7 | 10 | 9
CCc1cc(C)cc(CC)c1-c1c(O)c2nccnc2n(CC(F)F)c1=O [B4] | 9 | 10 | 8 | 7 | 10
CC(C)(C)C(=O)Oc1c(-c2cc(Cl)ccc2C(F)(F)F)c(=O)n(CC(F)F)c2nccnc12 [A37] | 7 | 5 | 5 | 6 | 7
CCc1ccccc1-c1c(OC(=O)C(C)C)c2nccnc2n(CC(F)F)c1=O [A45] | 8 | 10 | 5 | 10 | 9
CC(C)(C)C(=O)Oc1c(-c2c(Cl)cc(C(F)(F)F)cc2Cl)c(=O)n(CC(F)F)c2nccnc12 [A9] | 9 | 10 | 7 | 10 | –

Source: US8217055B2, “Pyrido-pyrazine derivatives useful as herbicidal compounds” (Syngenta Crop Protection LLC, priority 2006, dated 2012)
